Like-named read-outs stand apart in the source and are kept apart here.
System: OPN production in RPMI8226 cells
Assay: OPN production inhibiting effect in cultured RPMI8226 cells (ELISA of culture supernatant)
Format: cell-based, human
Conditions: RPMI8226 myeloma cells, 3 days prophase + 3 days anaphase culture, 0.1-10 μmol/L, OPN in culture supernatant by ELISA, logistic curve, read-out: IC50 (OPN production inhibition)
Procedure: Compounds 1 to 6 were separately dissolved in dimethylsulfoxide (DMSO) to prepare 20 mmol/L solutions of the respective compounds. Aliquots of those solutions were diluted further to prepare 6, 2, 0.6 and 0.2 mmol/L solutions of the respective compounds. The DMSO solutions of the respective compounds (1 to 6) (concentrations: 0.2 to 20 mmol/L) and DMSO (as a compound non-addition group) were separately diluted 1,000-fold with a culture medium (10% fetal-bovine-serum (FBS)-added RPMI-1640 medium) to prepare 0 (non-addition group), 0.2, 0.6, 2, 6 and 20 μmol/L solutions of the respective compounds (1-6).
3) Study on the OPN Production Inhibiting Effect of the Individual Compounds in RPMI8226 Cells
A 2×10^5 cells/mL cell suspension of RPMI8226 cells was prepared, and was seeded 2 mL by 2 mL per well on a 6-well plates. To the wells, the individual solutions prepared in the procedure 2) (the solutions of Compounds 1 to 6, having concentrations of 0 (non-addition group), 0.2, 0.6, 2, 6, and 20 μmol/L, respectively) were added 2 mL by 2 mL per well, followed by mixing to bring the final concentrations of Compound 1-6 in the individual wells to 0 (non-added group), 0.1, 0.3, 1, 3 and 10 μmol/L. The cells of those conditions were cultured as prophase culture at 37° C. for 3 days in the presence of 5% CO2.
After the above-described culture, the cells in the respective wells were collected, and were counted well by well. Those cells were again suspended separately in aliquots of a 2×10^5 cells/mL suspension, and the cells of the respective conditions were each seeded 0.5 mL by 0.5 mL per well in two wells. To the wells of the respective conditions, individual solutions prepared at the same concentrations as those at the time of the culture in a similar manner as in the prophase culture (individual solutions of Compounds 1 to 6, having concentrations of […], respectively) were added 0.5 mL by 0.5 mL per sell to the individual wells. After mixing, the cells were cultured as anaphase culture at 37° C. for 3 days in the presence of 5% CO2.
Subsequent to the completion of the anaphase culture, culture supernatants were separately collected from the respective wells, and the OPN concentrations in the individual culture supernatants were quantitated with an absorptiometer by ELISA (Human Osteopontin Measurement Kit IBL; IBL Co., Ltd.).
Using the SAS Preclinical Package, Version 5.0, the measurement values were analyzed by the following procedure. Described specifically, the concentrations were logarithmically converted (the compound non-addition group (0 μmol/L) was replaced by 1 pmol/L), and using the measurement values (6 concentrations, 2 measurement values per concentration, 12 measurement values in total), plotting into a logistic curve was conducted. From the curve, concentrations (IC50) which give 50% reactivity were calculated.

SMILES | IC50 (Homo sapiens, RPMI-8226, 72 h) | IC50
COc1ccc(-c2cc(=O)n(CC=Cc3ccc(Cl)cc3)nc2-c2ccc(OC)cc2)cc1 [Compound 3, 5,6-bis(4-methoxyphenyl)-2-(4-chlorocinnamyl)-2H-pyridazin-3-one] | 2760 nM | 
CSc1ccc(-c2nn(Cc3ccccc3)c(=O)cc2-c2ccc(Cl)cc2)cc1 [Compound 4, 2-benzyl-5-(4-chlorophenyl)-6-[4-(methylthio)phenyl]-2H-pyridazin-3-one] | 2560 nM | 
CCn1nc(-c2ccc(OC)cc2)c(-c2ccc(OC)cc2)cc1=O [Compound 6, 5,6-bis(4-methoxyphenyl)-2-ethyl-2H-pyridazin-3-one] | 1120 nM | 
COc1ccc(-c2nn(Cc3ccc(Cl)cc3)c(=O)cc2-c2ccncc2)cc1 [Compound 5] |  | 2420 nM
CSc1ccc(-c2nn(Cc3cccnc3)c(=O)cc2-c2ccc(Cl)cc2)cc1 [Compound 2, 5-(4-chlorophenyl)-6-[4-(methylthio)phenyl]-2-(3-pyridylmethyl)-2H-pyridazin-3-one methanesulfonate] | 2910 nM | 
CSc1ccc(-c2nn(Cc3ccccn3)c(=S)cc2-c2ccc(Cl)cc2)cc1 [Compound 1, 5-(4-chlorophenyl)-6-[4-(methylthio)phenyl]-2-(2-pyridylmethyl)-2H-pyridazine-3-thione methanesulfonate] | 2090 nM | 
